# Experimental data from paper PMC4542547 (Scientific Reports, 2015).
# “And” between values parts separate entries of the source, which are not always exact repeats. Equal entries are not always repeated. Where two headings read alike, the source gives them in different places. Positions of bridges follow the written chain, without caps; N, C: chain ends. Residues, ends and D or L forms follow the SMILES beside them.
# Columns and labels:
# human α9α10 nAChRs = target: T1, human α9α10 nAChRs (Homo sapiens, UniProt Q9GZZ6+Q9UGM1); assay: cell-based; format: cell-based
# T1 construct: expressed in transfected cells; host or cells: Xenopus laevis oocytes (cRNA injection)
# [1] = system: rat N-type (Cav2.2) calcium channels; format: cell-based; conditions: read-out: IC50 rN-type (Cav2.2)
# [2] = system: recombinant human Cav2.3 calcium channels; format: cell-based; conditions: read-out: IC50 hCav2.3
# rat α9α10 nAChRs = conditions: cited from earlier work
# [3] = system: rat N-type (Cav2.2) calcium channels; conditions: read-out: IC50 rN-type (Cav2.2); cited from earlier work
# [4] = system: recombinant human Cav2.3 calcium channels; conditions: read-out: IC50 hCav2.3; cited from earlier work
# in vitro = conditions: male, human, serum
# T1 sequence (Q9UGM1 26-479 limits assumed): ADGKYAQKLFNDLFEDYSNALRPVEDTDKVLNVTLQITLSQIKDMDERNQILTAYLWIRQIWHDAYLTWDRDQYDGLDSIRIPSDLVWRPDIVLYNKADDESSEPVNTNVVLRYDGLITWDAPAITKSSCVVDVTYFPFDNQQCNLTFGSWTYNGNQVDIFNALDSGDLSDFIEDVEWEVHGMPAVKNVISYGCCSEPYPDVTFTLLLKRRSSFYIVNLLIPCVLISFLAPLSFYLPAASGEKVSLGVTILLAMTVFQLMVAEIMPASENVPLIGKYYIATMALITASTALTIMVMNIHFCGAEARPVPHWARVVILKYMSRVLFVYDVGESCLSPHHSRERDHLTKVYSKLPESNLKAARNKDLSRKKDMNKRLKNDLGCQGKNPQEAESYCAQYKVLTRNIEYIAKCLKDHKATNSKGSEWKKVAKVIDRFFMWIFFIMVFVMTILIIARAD
# T1 sequence (Q9GZZ6 25-450): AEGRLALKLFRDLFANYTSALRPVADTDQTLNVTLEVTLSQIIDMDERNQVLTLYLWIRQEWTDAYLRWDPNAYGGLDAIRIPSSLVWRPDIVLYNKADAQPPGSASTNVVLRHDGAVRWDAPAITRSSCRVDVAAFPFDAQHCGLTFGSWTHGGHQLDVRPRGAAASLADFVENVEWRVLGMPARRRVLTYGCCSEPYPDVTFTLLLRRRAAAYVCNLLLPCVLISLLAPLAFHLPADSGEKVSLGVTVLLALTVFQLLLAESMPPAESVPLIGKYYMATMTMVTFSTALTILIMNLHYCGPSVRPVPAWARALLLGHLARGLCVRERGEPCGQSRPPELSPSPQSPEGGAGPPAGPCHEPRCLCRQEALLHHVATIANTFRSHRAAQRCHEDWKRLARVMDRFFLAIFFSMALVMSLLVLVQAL
structure (smiles),measurement,setting,value
CC[C@H](C)[C@@H]1NC(=O)[C@H](CCC(=O)O)NC(=O)[C@@H]2CCCN2C(=O)[C@H](Cc2c[nH]cn2)NC(=O)[C@H](CC(=O)O)NC(=O)[C@H](Cc2ccc(O)cc2)NC(=O)[C@H](CC(N)=O)NC(=O)[C@H](Cc2ccccc2)NC(=O)[C@H](CCCNC(=N)N)NC(=O)[C@@H]2CCCN2C(=O)[C@H](CC(=O)O)NC(=O)[C@H](CO)NC(=O)[C@@H]2CSSC[C@H](NC1=O)C(=O)NCC(=O)NCC(=O)N[C@@H](C)C(=O)N[C@@H](C)C(=O)NCC(=O)NCC(=O)NCC(=O)N[C@@H](Cc1c[nH]cn1)C(=O)N2 [hcVc1.1] (cyclo(AAGGGHCSDPRFNYDHPEICGG); disulfide 7-20),lower potency than cVc1.1 at human recombinant α9α10 nAChR currents,human α9α10 nAChRs,two-fold
same,IC50,[1],~900 pM and 857 pM
same,IC50,[2],~900 pM and 961 pM
CC[C@H](C)[C@@H]1NC(=O)[C@H](CCC(=O)O)NC(=O)[C@@H]2CCCN2C(=O)[C@H](Cc2c[nH]cn2)NC(=O)[C@H](CC(=O)O)NC(=O)[C@H](Cc2ccc(O)cc2)NC(=O)[C@H](CC(N)=O)NC(=O)[C@@H]2CSSC[C@@H]3NC(=O)CNC(=O)CNC(=O)CNC(=O)[C@H](C)NC(=O)[C@H](C)NC(=O)CNC(=O)CNC(=O)[C@H](CSSC[C@H](NC3=O)C(=O)N[C@@H](CO)C(=O)N[C@@H](CC(=O)O)C(=O)N3CCC[C@H]3C(=O)N[C@@H](CCCNC(=N)N)C(=O)N2)NC1=O [cVc1.1],IC50,rat α9α10 nAChRs,765000 pM
same,IC50,[3],300 pM
same,IC50,[4],290 pM
"CC[C@H](C)[C@@H]1NC(=O)[C@H](CCC(=O)O)NC(=O)[C@@H]2CCCN2C(=O)[C@H](Cc2cnc[nH]2)NC(=O)[C@H](CC(=O)O)NC(=O)[C@H](Cc2ccc(O)cc2)NC(=O)[C@H](CC(N)=O)NC(=O)[C@@H]2CSSC[C@H](NC(=O)CN)C(=O)N[C@@H](CSSC[C@@H](C(N)=O)NC1=O)C(=O)N[C@@H](CO)C(=O)N[C@@H](CC(=O)O)C(=O)N1CCC[C@H]1C(=O)N[C@@H](CCCNC(=N)N)C(=O)N2 [Vc1.1, reference compound]",IC50,human α9α10 nAChRs,320000 pM
CC[C@H](C)[C@@H]1NC(=O)[C@H](CCC(=O)O)NC(=O)[C@@H]2CCCN2C(=O)[C@H](Cc2cnc[nH]2)NC(=O)[C@H](CC(=O)O)NC(=O)[C@H](Cc2ccc(O)cc2)NC(=O)[C@H](CC(N)=O)NC(=O)[C@H](Cc2ccccc2)NC(=O)[C@H](CCCNC(=N)N)NC(=O)[C@@H]2CCCN2C(=O)[C@H](CC(=O)O)NC(=O)[C@H](CO)NC(=O)[C@@H]2CSSC[C@H](NC1=O)C(=O)NCC(=O)NCC(=O)N[C@@H](C)C(=O)N[C@@H](C)C(=O)NCC(=O)NCC(=O)NCC(=O)N[C@@H](Cc1cnc[nH]1)C(=O)N2 [hcVc1.1] (cyclo(AAGGGHCSDPRFNYDHPEICGG); disulfide 7-20),remaining at 24 h,in vitro,~90%
